Earlier results on three compounds are cited in publication PMC7340670, “Phase I study of TAS-115, a novel oral multi-kinase inhibitor, in patients with advanced solid tumors” (Investigational New Drugs, 2019).

The subject of one data set is circulating sMET. The arrangement: method as in PMID 21606412, PMID 21156020, PMID 24687921. The conditions noted are these: previous clinical studies; cited from earlier work.
Data set [1] has as its system patients with solid tumours. The arrangement: method as in PMID 21606412. The conditions noted are these: phase I study for solid tumours; cited from earlier work.

“onartuzumab: agent of a previous clinical study in which increased circulating sMET was reported (ref 21)”: in the data set on circulating sMET, the “levels of circulating sMET” value is reported as “Increased levels”.

For “rilotumumab: agent of a previous clinical study in which increased circulating sMET was reported (ref 20)”, the “levels of circulating sMET” value in the data set on circulating sMET was “Increased levels”.

As for `COc1cc2nccc(Oc3ccc(NC(=O)C4(C(=O)Nc5ccc(F)cc5)CC4)cc3)c2cc1OC` [cabozantinib], the “levels of circulating sMET” value in the data set with circulating sMET is reported as “Increased levels”. Further, in data set [1], the TRAE decreased appetite is 48%, the TRAE diarrhea is listed as 57%, the TRAE fatigue is on record as 55% and the TRAE nausea was 43%. For the same compound, the “TRAEs neutropenia, anemia, hypophosphatemia, and thrombocytopenia” value in data set [1] is “not observed”.
